Test system: L-41 cell line
Experiment: cytostatic activity on reinoculated tumor culture of L-41 cell line (protein content, % cell growth inhibition)
Format: cell-based
Procedure: The […] activity of a pharmaceutical formulation of the invention was tested with using reinoculated tumor cell cultures.
In the studies a reinoculated leukocyte culture of L-41 strain was used.
The cell culture was incubated by the conventional method. The inoculate density was 1-10^5 cells in 1 ml of nutrient medium. […] On day 2 from the start of the study, a biological activity of the proposed formulation was estimated using 4-point scale. The assays for protein in cultures were performed by the Louri method modified by the Oyama and Eagle.
The cytostatic activity of the proposed formulation was evaluated as the % inhibition of cell culture growth by the suppression of protein production.
According to the existing standard techniques for screening the antitumor preparations, a pharmaceutical formulation is recognized to be efficient when its ED50 is less or equal to 100 μg/ml.
Comparison of biologic activity of the proposed pharmaceutical
reinoculated tumor culture of L-41 cell line

[1] = mercury dichloride alone 1.0 μg/ml
[2] = mercury dichloride alone 3.3 μg/ml
[3] = mercury dichloride alone 5.0 μg/ml
[4] = mercury dichloride alone 8.0 μg/ml

`[Cl][Hg][Cl]` [Mercury dichloride, mercury dichloride] was tested, and the ED50 (L-41 culture, Table 1 data) was “about 8 μg/ml”, the “% of cell growth inhibition” value [1] was 1.2% and the Protein content [1] was 390.3 ± 2.6 µg/mL. For the same compound, the “% of cell growth inhibition” value [2] was 5.1%, the Protein content [2] was 279.0 ± 27.3 µg/mL and the “% of cell growth inhibition” value [3] was 12.9%. For the same compound, the Protein content [3] was 256.0 ± 5.2 µg/mL, the “% of cell growth inhibition” value [4] was 47.6% and the Protein content [4] was 154.0 ± 5.0 µg/mL. The “ED50 (preliminary experiment)” value (preliminary experiment) was < 10 µg/mL.

— patent US5889048A, “Methods and compositions for treating defective cell functions” (priority 1994, dated 1999)
